In one assay the target is HRAS wild-type protein (Homo sapiens, UniProt P01112). As to the kind of experiment: Binding to HRAS by surface plasmon resonance (SPR), KD and KD ratio to KRAS. In short, it runs like this: (§1)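 Measured at 30°C: SPR with GDP-loaded, E. coli-expressed biotin-Avi RAS captured (~100–300 RU), ascending 75 s compound injections, HBS pH 7.4 with GDP, MgCl2, 4% DMSO. KD from 1:1 fit.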
For orientation: In SPR one partner is held on a chip, and binding of the other changes the refractive index at the surface.

In assay [1] the test system is human lung cancer strain NCI-H441. The class given is cell-based. A digest of the protocol: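 Signal came from […] measured per well once the reagent was added. Beforehand, cells were cultured at 37°C and 5% carbon dioxide on a compound series serially diluted in dimethyl sulfoxide.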
Assay [2] concerns the target GDP-bound NRAS wild-type protein (Homo sapiens, UniProt P01111). As to the kind of experiment: Binding to NRAS by surface plasmon resonance (SPR), KD and KD ratio to KRAS. A digest of the protocol:
as §1

The mark [3] stands for this setting: ratio of KD for HRAS wild-type protein to KD for KRAS.
[4] abbreviates: ratio of KD for GDP-bound NRAS wild-type protein to KD for KRAS.
Setting [5] is: ratio of KD value for HRAS wild-type protein to KD value for KRAS (SPR).
[6] abbreviates: ratio of KD value for GDP-bound NRAS wild-type protein to KD value for KRAS (SPR).

Like-named read-outs stand apart in the source and are kept apart here. Where a SMILES comes first, the peptide text is derived from it. Bridges are numbered along the chain shown (N, C = ends). [ ]: non-standard residue; d: D form. The star is where a group is joined. hPhe(3-Cl-4-CF3) = N[C@@H](CCc1ccc(C(F)(F)F)c(Cl)c1)C(=O)O; NPrPhe(4-CF3) = CCCN[C@@H](Cc1ccc(C(F)(F)F)cc1)C(=O)O; NMeGly(cPent) = CN[C@H](C(=O)O)C1CCCC1; Hyp = O=C(O)[C@@H]1C[C@@H](O)CN1; Piperidide(4-Me) = CC1CCN(*)CC1; NMeD = CN[C@@H](CC(=O)O)C(=O)O; NMeL = CN[C@@H](CC(C)C)C(=O)O; Morpholide = C1CN(*)CCO1; Ac5c = NC1(C(=O)O)CCCC1; Sar = CNCC(=O)O

GDP-bound NRAS wild-type protein, sequence (P01111 whole entry): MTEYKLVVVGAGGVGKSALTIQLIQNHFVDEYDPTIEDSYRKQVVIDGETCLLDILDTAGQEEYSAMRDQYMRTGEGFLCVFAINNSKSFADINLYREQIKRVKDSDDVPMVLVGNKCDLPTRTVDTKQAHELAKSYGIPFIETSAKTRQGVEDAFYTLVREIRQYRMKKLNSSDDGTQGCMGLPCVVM
HRAS wild-type protein, sequence (P01112 whole entry): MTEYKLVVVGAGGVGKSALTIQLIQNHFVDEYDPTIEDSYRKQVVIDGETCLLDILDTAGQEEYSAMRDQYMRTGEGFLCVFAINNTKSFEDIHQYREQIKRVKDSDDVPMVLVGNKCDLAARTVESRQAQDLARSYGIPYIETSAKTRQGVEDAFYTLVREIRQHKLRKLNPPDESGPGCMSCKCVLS

Turning to `CCCN1C(=O)CN(C)C(=O)CN(C)C(=O)[C@H]([C@@H](C)CC)NC(=O)[C@H](CC(C)C)N(C)C(=O)C[C@@H](C(=O)N2CCOCC2)NC(=O)[C@H](C2CCCC2)N(C)C(=O)C2(CCCC2)NC(=O)[C@@H]2CCCN2C(=O)[C@H](CCc2ccc(C(F)(F)F)c(Cl)c2)NC(=O)CN(C)C(=O)[C@@H]1Cc1ccc(C(F)(F)F)cc1` [PP0146] ([NMeL]I[Sar][Sar][NPrPhe(4-CF3)][Sar][hPhe(3-Cl-4-CF3)]P[Ac5c][NMeGly(cPent)]D-Morpholide; lactam N-11), on HRAS wild-type protein (setting [3]), the “HRAS /KRAS” value is “B (a compound having 3 or more and less than 10 is denoted as B)”. In addition, the 50% inhibitory concentration (IC50) (commonly the concentration that gives 50% inhibition) in assay [1] stood at 23.9 nM. The “NRAS /KRAS” value in assay [2] (setting [4]) was “B (a compound having 3 or more and less than 10 is denoted as B)”.

On to `CCCN(C)C(=O)[C@@H]1CC(=O)N(C)[C@@H](CC(C)C)C(=O)N[C@@H]([C@@H](C)CC)C(=O)N(C)CC(=O)N(C)[C@H]2C/C=C\CCN(C2=O)[C@@H](Cc2ccc(C(F)(F)F)cc2)C(=O)N(C)CC(=O)N[C@@H](CCc2cc(F)c(C(F)(F)F)c(F)c2)C(=O)N2C[C@H](OCC)C[C@H]2C(=O)NC2(CCC2)C(=O)N(C)[C@@H](C2CCCC2)C(=O)N1C` [PP1387], for which the “HRAS /KRAS” value on HRAS wild-type protein (ratio of KD with respect to HRAS wild-type protein to KD with respect to KRAS) was “B (a compound having 3 or more and less than 10 is denoted as B)”. In assay [1], this compound gave an IC50 of 15.3 nM. Moreover, the “NRAS /KRAS” value in assay [2] (ratio of KD with respect to GDP-bound NRAS wild-type protein to KD with respect to KRAS) is “A (a compound having 10 or more and less than 20 is denoted as A)”.

Turning to `CCOC[C@H]1C(=O)N[C@@H]([C@@H](C)CC)C(=O)N(C)CC(=O)N(C)[C@H]2C/C=C\CCN(C2=O)[C@@H](Cc2ccc(C)c(F)c2)C(=O)N(C)CC(=O)N[C@@H](CCc2ccc(C(F)(F)F)c(OC)c2)C(=O)N2C[C@@H](C)C[C@H]2C(=O)NC2(CC(C)(C)C2)C(=O)N(C)[C@@H](C2CCCC2)C(=O)N(C)[C@H](C(=O)N(C)CC)CC(=O)N1C` [PP2698], the “HRAS /KRAS” value at HRAS wild-type protein (setting [3]) is “A (a compound having 10 or more and less than 20 is denoted as A)”. In assay [1] (NCI-H441 cells, 4 days, CellTiter-Glo, read-out: NCl-H441 IC50), the half-maximal inhibitory concentration (IC50) came out at 30.4 nM. In assay [2] (setting [4]), the “NRAS /KRAS” value is “A (a compound having 10 or more and less than 20 is denoted as A)”.

As for `CCCN1C(=O)CN(C)C(=O)CN(C)C(=O)[C@H]([C@@H](C)CC)NC(=O)[C@H](CC(C)C)N(C)C(=O)C[C@@H](C(=O)N2CCC(C)CC2)N(C)C(=O)[C@H](C2CCCC2)N(C)C(=O)C2(CCCC2)NC(=O)[C@@H]2CCCN2C(=O)[C@H](CCc2ccc(C(F)(F)F)c(Cl)c2)NC(=O)CN(C)C(=O)[C@@H]1Cc1ccc(C(F)(F)F)cc1` [PP0176] ([NMeL]I[Sar][Sar][NPrPhe(4-CF3)][Sar][hPhe(3-Cl-4-CF3)]P[Ac5c][NMeGly(cPent)][NMeD]-{Piperidide(4-Me)}; lactam N-11), the “HRAS /KRAS” value on HRAS wild-type protein (setting [3]) is “C (A compound having a KD ratio of 0.1 or more and less than 3 is denoted as C)”. In assay [1], this compound yielded an IC50 of 17.7 nM. Also, the “NRAS /KRAS” value in assay [2] (setting [4]) was “B (a compound having 3 or more and less than 10 is denoted as B)”.

As to `CCO[C@@H]1C[C@H]2C(=O)NC3(CCC3)C(=O)N(C)[C@@H](C(CC)CC)C(=O)N(C)[C@H](C(=O)N3CCCC3)CC(=O)N(C)[C@H]3CCC/C=C/c4ccc(cc4)C[C@@H](C(=O)N(C)CC(=O)N[C@@H](CCc4ccc(Cl)c(Cl)c4)C(=O)N2C1)N1CC/C=C\C[C@@H](C1=O)N(C)C(=O)CN(C1CC1)C(=O)[C@H]([C@@H](C)CC)NC3=O` [PP3040], the “HRAS /KRAS” value on HRAS wild-type protein (setting [3]) was “A (a compound having 10 or more and less than 20 is denoted as A)”. The same compound gave an IC50 in assay [1] of 10 nM. Moreover, the “NRAS /KRAS” value in assay [2] (setting [4]) was “AA (a compound having 20 or more is denoted as AA)”.

As for `CCCN1C(=O)CN(C)C(=O)CN(C)C(=O)[C@H]([C@@H](C)CC)NC(=O)[C@H](CC(C)C)N(C)C(=O)C[C@@H](C(=O)N2CCOCC2)N(C)C(=O)[C@H](C2CCCC2)N(C)C(=O)C2(CCCC2)NC(=O)[C@@H]2C[C@@H](O)CN2C(=O)[C@H](CCc2ccc(C(F)(F)F)c(Cl)c2)NC(=O)CN(C)C(=O)[C@@H]1Cc1ccc(C(F)(F)F)cc1` [PP0241] ([NMeL]I[Sar][Sar][NPrPhe(4-CF3)][Sar][hPhe(3-Cl-4-CF3)][Hyp][Ac5c][NMeGly(cPent)][NMeD]-Morpholide; lactam N-11), the “HRAS /KRAS” value on HRAS wild-type protein (setting [3]) is “C (A compound having a KD ratio of 0.1 or more and less than 3 is denoted as C)”. This compound also displayed a half-maximal inhibitory concentration (IC50) in assay [1] of 4.9 nM. Further, in assay [2] (setting [4]), the “NRAS /KRAS” value was “B (a compound having 3 or more and less than 10 is denoted as B)”.

For `CC[C@H](C)[C@@H]1NC(=O)[C@H](CC)N(C)C(=O)C[C@@H](C(=O)N(C)C)N(CC)C(=O)[C@H](C2CCCC2)N(C)C(=O)C2(CCC2)NC(=O)[C@@H]2C[C@H](N3CCC(F)(F)CC3)CN2C(=O)[C@H](CCc2cc(F)c(C(F)(F)F)c(F)c2)NC(=O)CN(C)C(=O)[C@H](Cc2ccc(C(F)(F)F)cc2)N2CCCC[C@@H](C2=O)N(C)C(=O)CN(C)C1=O` [PP0659], at HRAS wild-type protein (ratio of the KD value with respect to HRAS wild-type protein to the KD value with respect to KRAS), the “HRAS /KRAS” value is “B (a compound having 3 or more and less than 10 is denoted as B)”. In addition, in assay [1], the IC50 is 184 nM. Besides, the “NRAS /KRAS” value in assay [2] (ratio of the KD value with respect to GDP-bound NRAS wild-type protein to the KD value with respect to KRAS) is “B (a compound having 3 or more and less than 10 is denoted as B)”.

As to `CCC[C@H]1C(=O)N[C@@H]([C@@H](C)CC)C(=O)N(C)CC(=O)N(C)[C@H]2C/C=C\CCN(C2=O)[C@@H](Cc2ccc(C)cc2)C(=O)N(C)CC(=O)N[C@@H](CCc2ccc3c(C)c(C)n(C)c3c2)C(=O)N2C[C@H](OCC)C[C@H]2C(=O)NC2(CC(C)(C)C2)C(=O)N(C)[C@@H](C2CCCC2)C(=O)N(C)[C@H](C(=O)N(C)C)CC(=O)N1C` [PP2895], the “HRAS /KRAS” value on HRAS wild-type protein (setting [3]) is “A (a compound having 10 or more and less than 20 is denoted as A)”. The compound further yielded an IC50 in assay [1] of 59 nM. Also, the “NRAS /KRAS” value in assay [2] (setting [4]) was “A (a compound having 10 or more and less than 20 is denoted as A)”.

On to `CCCN(C)C(=O)[C@@H]1CC(=O)N(C)[C@@H](COC)C(=O)N[C@@H]([C@@H](C)CC)C(=O)N(C)CC(=O)N(C)[C@H]2C/C=C\CCN(C2=O)[C@@H](Cc2ccc(C(F)(F)F)cc2)C(=O)N(C)CC(=O)N[C@@H](CCc2ccc(C(F)(F)F)c(OC)c2)C(=O)N2C[C@H](OCC)C[C@H]2C(=O)NC2(CC(C)(C)C2)C(=O)N(C)[C@@H](C2CCCC2)C(=O)N1C` [PP1656], for which the “HRAS /KRAS” value on HRAS wild-type protein (setting [5]) was “A (a compound having 10 or more and less than 20 is denoted as A)”. The same compound had an IC50 in assay [1] of 1.5 nM. Besides, the “NRAS /KRAS” value in assay [2] (setting [6]) is reported as “AA (a compound having 20 or more is denoted as AA)”.

Turning to `CC[C@H](C)[C@@H]1NC(=O)[C@H](CC2CC2)N(C)C(=O)C[C@@H](C(=O)N(C)CC)N(C)C(=O)[C@H](C2CCCC2)N(C)C(=O)C2(CCC2)NC(=O)[C@@H]2CC(F)(F)CN2C(=O)[C@H](CCc2cc(F)c(C(F)(F)F)c(F)c2)NC(=O)CN(C)C(=O)[C@H](Cc2ccc(C(F)(F)F)cc2)N2CC/C=C\C[C@@H](C2=O)N(C)C(=O)CN(C)C1=O` [PP1538], at HRAS wild-type protein (setting [5]), the “HRAS /KRAS” value is “B (a compound having 3 or more and less than 10 is denoted as B)”. Further, the midpoint of inhibition in assay [1], the IC50, lay at 7.5 nM. Further, the “NRAS /KRAS” value in assay [2] (setting [6]) is “A (a compound having 10 or more and less than 20 is denoted as A)”.

Regarding `CCCO[C@@H]1C[C@H]2C(=O)NC3(CC(C)(C)C3)C(=O)N(C)[C@@H](C3CCCC3)C(=O)N(C)[C@H](C(=O)N(C)C)CC(=O)N(C)[C@H]3CCCCc4ccc(cc4)C[C@@H](C(=O)N(C)CC(=O)N[C@@H](CCc4ccc(Cl)c(Cl)c4)C(=O)N2C1)N1CC/C=C\C[C@@H](C1=O)N(C)C(=O)CN(C)C(=O)[C@H]([C@@H](C)CC)NC3=O` [PP3092], the “HRAS /KRAS” value on HRAS wild-type protein (setting [3]) was “A (a compound having 10 or more and less than 20 is denoted as A)”. This compound displayed an IC50 in assay [1] of 7.4 nM. Also, the “NRAS /KRAS” value in assay [2] (setting [4]) is “A (a compound having 10 or more and less than 20 is denoted as A)”.

The values above are taken from patent EP4603105A1, “PHARMACEUTICAL COMPOSITION CONTAINING CYCLIC COMPOUND HAVING SELECTIVE KRAS INHIBITORY EFFECT AGAINST HRAS AND NRAS” (CHUGAI SEIYAKU KABUSHIKI KAISHA, priority 2022, dated 2024).
